Measurements: article PMC12147183, “Lacritin cleavage-potentiated targeting of iron - respiratory reciprocity promotes bacterial death” (The Journal of Biological Chemistry, 2025)
Peptide text beside a SMILES is read from it.

Key:
[1] = tested on: ^14C-spermidine uptake by PA14; type: cell-based, Pseudomonas aeruginosa
Procedure: 100 μl aliquots (0.8 × 10^8 cfu) of PA14 cell cultures in 1 mM Na2HPO4, 0.18 mM KH2PO4, 0.27 mM KCl, 13.7 mM NaCl without or with 1, 10, 25, 50 or 100 μM N-104 (or N-80/C-25 or C-95) for 45 min at 35 °C were incubated with 1 μl of 10 mM [1,4-^14C]putrescine (0.1 mCi/ml; ARC-0245–250, American Radiolabeled Chemicals) or [1,4-^14C]spermidine (0.1 mCi/ml; ARC-3138–50, American Radiolabeled Chemicals) for 15 min at 35 °C. Cell pellets were washed four times with 100 μl of 10 mM Na2HPO4, 1.8 mM KH2PO4, 2.7 mM KCl, 137 mM NaCl (pH 7.2) and then transferred to 4 ml of scintillation fluid (1200.437, PerkinElmer OptiPhase HiSafe 3) for analysis in a Beckman Coulter LS6500. Also assessed was radioactivity from the last wash. Single-molecule transportation per cell was estimated using standard curves for each radiolabeled polyamine.

thrombin (F2) = thrombin (F2) (Homo sapiens, UniProt P00734); assay: Affinity pulldown of human tears on peptide columns; type: binding; conditions: pooled human basal tears, 300 mOsm/l, 0.5 M KCl eluant, anti-F2 immunodetection
Procedure: Studies in this work abide by the Declaration of Helsinki principles. As per UVA IRB protocol 18,592, consented normal human volunteers were subjected to 0.5% proparacaine anesthesia of the eye to minimize reflex tearing. Human basal tears were then wicked for 5 min onto filter paper-like Schirmer strips. Those that had wicked a distance of at least 12 mm were subjected to 4 °C elution with 10 mM Na2HPO4, 1.8 mM KH2PO4, 2.7 mM KCl, 137 mM NaCl (pH 7.2) for a final total pooled tear volume of 170 μl. The pool was diluted five-fold in 10 mM Na2HPO4, 1.8 mM KH2PO4, 2.7 mM KCl, and 137 mM NaCl (pH 7.2) with protease inhibitors and subjected to end-over-end mixing with a 100 μl precolumn of Pierce Agarose followed by equal division by protein concentration into each of 100 μl of N-104 or C-95 columns. The solution was mixed for 5 h at 4 °C. Columns were subjected to washing with 10 mM Na2HPO4, 1.8 mM KH2PO4, 2.7 mM KCl, and 137 mM NaCl (pH 7.2) containing the same protease inhibitors followed by elution using KCl (0.3, 0.5, and 1.0 M KCl) in the same buffer. The 0.5 M KCl eluate was submitted for mass spectrometric sequencing by UVA's Biomolecular Analysis Facility, as previously noted. The acquired data were analyzed by database searching using the Sequest search algorithm against UniProt H. sapiens. […]

[2] = Surface plasmon resonance on chip-supported Gram-positive model membrane; type: binding; conditions: highest N-104 concentration, PC:PG Gram-positive model membrane
P. aeruginosa PA14 = assay: N-104 sub-MIC generational resistance assay; type: cell-based, Pseudomonas aeruginosa; conditions: PA14 treated at subminimal inhibitory and minimal inhibitory concentrations, n = 2
Procedure: Supplementary Fig. 2. Thirty generations of PA14 fail to develop stable N-104 resistance together with biological replicates related to Fig. 2. A, Schematic of the N-104 sub-minimal inhibitory concentration (‘sub-MIC’) N-104 resistant assay. […] . This process was repeated through 30 generations. B, Generational fold change of N-104 MIC over 30 generations. The original sub-MIC N-104 concentration was 2 µM, for which there was no initial sub-MIC change ([mean], n = 2, *p<0.05; ns, not significant [Friedman ANOVA with Dunn's multiple comparisons test]). C, Biological replicates of the N-104 sub-MIC resistant assay. Scale bar is 2 mm. […] Scale bar is 2 mm.

SMILES | effect on ^14C-spermidine uptake ([1]; 1 to 100 μM peptide) | binding of tear thrombin to immobilized peptide (thrombin (F2)) | SPR response after buffer wash versus baseline [2] | IC50 [1] | development of resistance over 30 successive generations (P. aeruginosa PA14)
C[C@H](NC(=O)CNC(=O)[C@@H](NC(=O)[C@H](CO)NC(=O)[C@H](CC(=O)O)NC(=O)[C@H](CO)NC(=O)[C@H](CO)NC(=O)[C@H](C)NC(=O)[C@H](CC(=O)O)NC(=O)[C@@H](N)CCC(=O)O)[C@@H](C)O)C(=O)N[C@@H](CC(=O)O)C(=O)N1CCC[C@H]1C(=O)N[C@@H](C)C(=O)N[C@@H](CCC(N)=O)C(=O)N[C@@H](CCC(=O)O)C(=O)N[C@@H](C)C(=O)NCC(=O)N[C@H](C(=O)N[C@@H](CO)C(=O)N[C@@H](CCCCN)C(=O)N1CCC[C@H]1C(=O)N[C@@H](CC(N)=O)C(=O)N[C@@H](CCC(=O)O)C(=O)N[C@@H](CCC(=O)O)C(N)=O)[C@@H](C)O [C-95, reference compound] (H-EDASSDSTGADPAQEAGTSKPNEE-NH2) | had no effect |  |  |  | 
CC(=O)N[C@@H](C)C(=O)N[C@@H](CCC(N)=O)C(=O)N[C@@H](CCCCN)C(=O)N[C@@H](CC(C)C)C(=O)N[C@@H](CC(C)C)C(=O)N[C@@H](CCCCN)C(=O)N[C@@H](CCCCN)C(=O)N[C@@H](Cc1ccccc1)C(=O)N[C@@H](CO)C(=O)N[C@@H](CC(C)C)C(=O)N[C@@H](CC(C)C)C(=O)N[C@@H](CCCCN)C(=O)N1CCC[C@H]1C(=O)N[C@@H](Cc1c[nH]c2ccccc12)C(=O)N[C@@H](C)C(=O)O [N-104] (Ac-AQKLLKKFSLLKPWA-OH) |  | binds thrombin | slightly below baseline | 10 µM | No stable resistance was apparent
